Key:
[1] = molecular target: T1, human DP2 receptor (Homo sapiens, UniProt Q9Y5Y4); experiment: DP2/CRTH2 radioligand binding assay using [3H]PGD2; settings: hDP2 (CRTH2) binding assay
T1 construct: expressed in transfected cells
T1 sequence (Q9Y5Y4 1-395): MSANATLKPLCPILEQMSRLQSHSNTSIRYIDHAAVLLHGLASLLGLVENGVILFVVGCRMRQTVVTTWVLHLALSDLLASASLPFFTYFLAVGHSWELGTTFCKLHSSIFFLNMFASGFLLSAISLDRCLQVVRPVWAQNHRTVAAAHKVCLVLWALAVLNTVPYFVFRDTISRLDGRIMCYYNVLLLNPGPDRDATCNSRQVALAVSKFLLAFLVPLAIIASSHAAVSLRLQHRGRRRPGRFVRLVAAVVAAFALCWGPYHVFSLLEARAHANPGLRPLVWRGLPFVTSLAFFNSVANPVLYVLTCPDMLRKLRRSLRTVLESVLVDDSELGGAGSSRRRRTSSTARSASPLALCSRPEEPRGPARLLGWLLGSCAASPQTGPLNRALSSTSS
In short: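 HEK293 membranes with stable recombinant human DP2, incubated with 1 nM [3H]PGD2 and compound 60 min at room temperature in pH 7.4 HEPES/MnCl2/EDTA buffer, with or without 0.2% human serum albumin.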

[2] = molecular target: T2, recombinant human CRTH2 receptor (Homo sapiens, UniProt Q9Y5Y4); experiment: GTPγS binding assay; type: biochemical; settings: +HSA; read-out: hDP2 GTPγS μM (+HSA)
T2 construct: expressed in transfected cells
T2 sequence (Q9Y5Y4 1-395): T1 sequence (Q9Y5Y4 1-395)
In short: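 Membranes from CHO cells stably expressing recombinant receptor (~12.5 μg/well), incubated 60 min at 30° C with 0.05 nM [^35S]-GTPγS, 80 nM PGD2, 5 μM GDP in pH 7.4 Hepes buffer with 0.2% human serum albumin. Filter-bound radioactivity counted; specific binding = total minus binding without PGD2; IC50 from titration curves.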

[3] = molecular target: T3, human DP1 receptor (Homo sapiens, UniProt Q13258); experiment: DP1 radioligand binding assay using [3H]BWA868C; settings: hDP1 binding
T3 construct: tissue Biological Specialty Corporation; host or cells: human platelets, membranes
T3 sequence (Q13258 1-359): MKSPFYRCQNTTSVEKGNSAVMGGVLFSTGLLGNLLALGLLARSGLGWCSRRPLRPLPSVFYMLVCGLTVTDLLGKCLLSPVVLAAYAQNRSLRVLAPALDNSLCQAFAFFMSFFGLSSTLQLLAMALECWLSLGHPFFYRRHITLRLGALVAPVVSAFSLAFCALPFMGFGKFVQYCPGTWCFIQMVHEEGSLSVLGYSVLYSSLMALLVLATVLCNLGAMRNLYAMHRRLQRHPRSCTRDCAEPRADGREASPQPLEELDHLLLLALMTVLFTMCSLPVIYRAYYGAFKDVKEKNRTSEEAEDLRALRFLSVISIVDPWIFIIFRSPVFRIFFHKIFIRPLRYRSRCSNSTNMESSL
In short: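 Human platelet membranes (20 μg protein/well) incubated 60 min at room temperature with 2 nM [3H]BWA868C in 50 mM Hepes, 10 mM MnCl2, 1 mM EDTA, ±0.2% human serum albumin, pH 7.4. Bound label measured after filtration; nonspecific binding defined with 10 μM BW A868C. IC50 from titration curves.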

IC50 [1] [nM] | IC50 [2] [µM] | IC50 [3] [nM] | Compound
< 300 | > 1 | > 1000 | C[C@@H]1[C@H](c2cc(C(F)(F)F)cc(C(F)(F)F)c2)OC(=O)N1Cc1cc(Br)ccc1Oc1cccc(CC(=O)O)c1 [Compound 1-52]
< 300 | > 1 | > 1000 | C[C@@H]1[C@H](c2ccccc2)OC(=O)N1Cc1cc(Br)ccc1Oc1ccc(Cl)c(CC(=O)O)c1 [Compound 1-53, {5-[4-Bromo-2-((4R,5S)-4-methyl-2-oxo-5-phenyl-oxazolidin-3-ylmethyl)-phenoxy]-2-chloro-phenyl}-acetic acid]
300 to 1000 | > 1 | > 1000 | C[C@@H]1[C@H](c2ccccc2)OC(=O)N1Cc1cc(Br)ccc1Oc1ccc(C(F)(F)F)c(CC(=O)O)c1 [Compound 1-54, {5-[4-Bromo-2-((4R,5S)-4-methyl-2-oxo-5-phenyl-oxazolidin-3-ylmethyl)-phenoxy]-2-trifluoromethyl-phenyl}-acetic acid]
< 300 | < 0.3 | > 1000 | C[C@@H]1[C@H](c2ccccc2)OC(=O)N1Cc1cc(Br)ccc1Oc1cc(F)cc(CC(=O)O)c1 [Compound 1-55, {3-[4-Bromo-2-((4R,5S)-4-methyl-2-oxo-5-phenyl-oxazolidin-3-ylmethyl)-phenoxy]-5-fluoro-phenyl}-acetic acid]
< 300 | < 0.3 | > 1000 | C[C@@H]1[C@H](c2ccccc2)OC(=O)N1Cc1cc(Br)ccc1Oc1cc(Cl)cc(CC(=O)O)c1 [Compound 1-56, {3-[4-Bromo-2-((4R,5S)-4-methyl-2-oxo-5-phenyl-oxazolidin-3-ylmethyl)-phenoxy]-5-chloro-phenyl}-acetic acid]
< 300 | < 0.3 | > 1000 | C[C@@H]1[C@H](c2ccccc2)OC(=O)N1Cc1cc(Br)ccc1Oc1cc(CC(=O)O)cc(C(F)(F)F)c1 [Compound 1-57, {3-[4-Bromo-2-((4R,5S)-4-methyl-2-oxo-5-phenyl-oxazolidin-3-ylmethyl)-phenoxy]-5-trifluoromethyl-phenyl}-acetic acid]
< 300 | 0.3 to 1 | > 1000 | C[C@@H]1[C@H](c2ccccc2)OC(=O)N1Cc1cc(Br)ccc1Oc1cc(CC(=O)O)ccc1Cl [Compound 1-58, {3-[4-Bromo-2-((4R,5S)-4-methyl-2-oxo-5-phenyl-oxazolidin-3-ylmethyl)-phenoxy]-4-chloro-phenyl}-acetic acid]
< 300 | < 0.3 | > 1000 | COc1ccc(CC(=O)O)cc1Oc1ccc(Cl)cc1CN1C(=O)O[C@@H](c2ccccc2)[C@H]1C [Compound 1-59, {3-[4-Chloro-2-((4R,5S)-4-methyl-2-oxo-5-phenyl-oxazolidin-3-ylmethyl)-phenoxy]-4-methoxy-phenyl}-acetic acid]
< 300 | < 0.3 | > 1000 | COc1ccc(CC(=O)O)cc1Oc1ccc(Br)cc1CN1C(=O)O[C@@H](c2ccccc2)[C@H]1C [Compound 1-60, {3-[4-Bromo-2-((4R,5S)-4-methyl-2-oxo-5-phenyl-oxazolidin-3-ylmethyl)-phenoxy]-4-methoxy-phenyl}-acetic acid]
< 300 | 0.3 to 1 | > 1000 | COc1ccc(CC(=O)O)cc1Oc1ccc(C(F)(F)F)cc1CN1C(=O)O[C@@H](c2ccccc2)[C@H]1C [Compound 1-61, {4-Methoxy-3-[2-((4R,5S)-4-methyl-2-oxo-5-phenyl-oxazolidin-3-ylmethyl)-4-trifluoromethyl-phenoxy]-phenyl}-acetic acid]
< 300 | 0.3 to 1 | > 1000 | COc1ccc(CC(=O)O)cc1Oc1ccc(Br)cc1CN1C(=O)O[C@@H](c2ccc(Cl)cc2)[C@H]1C [Compound 1-62]
< 300 | < 0.3 | > 1000 | COc1ccc(CC(=O)O)cc1Oc1ccc(Br)cc1CN1C(=O)O[C@@H](c2cc(F)cc(F)c2)[C@H]1C [Compound 1-63, (3-{4-Bromo-2-[(4R,5S)-5-(3,5-difluoro-phenyl)-4-methyl-2-oxo-oxazolidin-3-ylmethyl]-phenoxy}-4-methoxy-phenyl)-acetic acid]
300 to 1000 | > 1 | > 1000 | COc1ccc(CC(=O)O)cc1Oc1ccc(Br)cc1CN1C(=O)O[C@@H](c2cc(C(F)(F)F)cc(C(F)(F)F)c2)[C@H]1C [Compound 1-64, (3-{2-[(4R,5S)-5-(3,5-Bis-trifluoromethyl-phenyl)-4-methyl-2-oxo-oxazolidin-3-ylmethyl]-4-bromo-phenoxy}-4-methoxy-phenyl)-acetic acid]
< 300 | 0.3 to 1 | > 1000 | CCNC(=O)c1ccc(Oc2cc(CC(=O)O)ccc2OC)c(CN2C(=O)O[C@@H](c3ccccc3)[C@H]2C)c1 [Compound 1-65, {3-[4-Ethylcarbamoyl-2-((4R,5S)-4-methyl-2-oxo-5-phenyl-oxazolidin-3-ylmethyl)-phenoxy]-4-methoxy-phenyl}-acetic acid]
< 300 | < 0.3 | > 1000 | COc1ccc(CC(=O)O)cc1Oc1ccc(-c2cnn(C)c2)cc1CN1C(=O)O[C@@H](c2ccccc2)[C@H]1C [Compound 1-66, {4-Methoxy-3-[2-((4R,5S)-4-methyl-2-oxo-5-phenyl-oxazolidin-3-ylmethyl)-4-(1-methyl-1H-pyrazol-4-yl)-phenoxy]-phenyl}-acetic acid]
< 300 | 0.3 to 1 | > 1000 | C[C@@H]1[C@H](c2ccccc2)OC(=O)N1Cc1cc(C(F)(F)F)ccc1Oc1cc(CC(=O)O)ccc1OCc1ccccc1 [Compound 1-67, {4-Benzyloxy-3-[2-((4R,5S)-4-methyl-2-oxo-5-phenyl-oxazolidin-3-ylmethyl)-4-trifluoromethyl-phenoxy]-phenyl}-acetic acid]
< 300 | 0.3 to 1 | < 300 | Cc1nc(C)c(-c2ccc(Oc3cccc(CC(=O)O)c3)c(CN3C(=O)O[C@H](c4ccccc4)[C@@H]3C)c2)s1 [Compound 1-75, {3-[4-(2,4-Dimethyl-thiazol-5-yl)-2-((4S,5R)-4-methyl-2-oxo-5-phenyl-oxazolidin-3-ylmethyl)-phenoxy]-phenyl}-acetic acid]
< 300 | 0.3 to 1 | < 300 | Cc1noc(C)c1-c1ccc(Oc2cccc(CC(=O)O)c2)c(CN2C(=O)O[C@H](c3ccccc3)[C@@H]2C)c1 [Compound 1-76, {3-[4-(3,5-Dimethyl-isoxazol-4-yl)-2-((4S,5R)-4-methyl-2-oxo-5-phenyl-oxazolidin-3-ylmethyl)-phenoxy]-phenyl}-acetic acid]
< 300 | 0.3 to 1 | < 300 | C[C@H]1[C@@H](c2ccccc2)OC(=O)N1Cc1cc(C(F)(F)F)ccc1Oc1cccc(CC(=O)O)c1 [Compound 1-77, {3-[2-((4S,5R)-4-Methyl-2-oxo-5-phenyl-oxazolidin-3-ylmethyl)-4-trifluoromethyl-phenoxy]-phenyl}-acetic acid]
< 300 | < 0.3 | > 1000 | C[C@@H]1[C@H](c2ccccc2)OC(=O)N1Cc1cc(C(F)(F)F)ccc1Oc1cc(CC(=O)O)ccc1O [Compound 1-78, {4-Hydroxy-3-[2-((4R,5S)-4-methyl-2-oxo-5-phenyl-oxazolidin-3-ylmethyl)-4-trifluoromethyl-phenoxy]-phenyl}-acetic acid]
< 300 | < 0.3 | > 1000 | C[C@@H]1[C@H](c2ccccc2)OC(=O)N1Cc1cc(C(F)(F)F)ccc1Oc1cc(CC(=O)O)ccc1-c1cnn(C)c1 [Compound 1-79, [3-[2-((4R,5S)-4-Methyl-2-oxo-5-phenyl-oxazolidin-3-ylmethyl)-4-trifluoromethyl-phenoxy]-4-(1-methyl-1H-pyrazol-4-yl)-phenyl]-acetic acid]
< 300 | < 0.3 | > 1000 | C[C@@H]1[C@H](c2ccccc2)OC(=O)N1Cc1cc(C(F)(F)F)ccc1Oc1cc(CC(=O)O)ccc1-c1ccccc1 [Compound 1-80, {2-[2-((4R,5S)-4-Methyl-2-oxo-5-phenyl-oxazolidin-3-ylmethyl)-4-trifluoromethyl-phenoxy]-biphenyl-4-yl}-acetic acid]
